Experimental data published in patent publication US9815836B2, “Macrocyclic compounds as IRAK1/4 inhibitors and uses thereof” (Merck Patent GmbH, priority 2015, dated 2017).
Like-named read-outs stand apart in the source and are kept apart here.

Experiments:
IRAK1 = IRAK1 (Homo sapiens (Human), UniProt P51617); assay: IRAK1 enzymatic assay (ADP-Glo luminescence); type: biochemical
Protocol: In this assay, IRAK1 hydrolyses ATP and autophosphorylates. Measurement of IRAK-1 inhibition is performed in 384-well format based on luminescence assay (ADP-Glo™ Kinase Assay from Promega). Purified human recombinant IRAK1 ([…]) and serial diluted compounds in DMSO (range of concentration from 10 μM to 0.5 nM) or controls (1% DMSO) are incubated for 15 minutes at RT in assay buffer containing 50 mM Hepes pH 7.0, Fatty acid-free BSA 0.1%, Dithiothreitol (DTT) 2 mM, MgCl2 10 mM, EGTA 0.5 mM, Triton X-100 0.01%. The kinase reaction is then initiated by the addition of ATP at a concentration of 1μM. After 2 hours of incubation at RT, the reaction is stopped and the unconsumed ATP depleted by the addition of ADP-Glo™ Reagent according to supplier instructions. After 40 minutes of incubation at RT, the Kinase Detection Reagent is then added to the assay plate according to supplier instructions. After 20 minutes of incubation at RT, the luminescence signal is measured with a luminometer (PerkinElmer Envision or equivalent reader).

IRAK4 = IRAK4 (Homo sapiens (Human), UniProt Q9NWZ3); assay: IRAK4 enzymatic assay (ADP-Glo luminescence); type: biochemical; conditions: human purified recombinant His-TEV-IRAK4 (1-460), ATP 2 μM, STK1-biotin peptide 300 nM
IRAK4, sequence (Q9NWZ3 whole entry): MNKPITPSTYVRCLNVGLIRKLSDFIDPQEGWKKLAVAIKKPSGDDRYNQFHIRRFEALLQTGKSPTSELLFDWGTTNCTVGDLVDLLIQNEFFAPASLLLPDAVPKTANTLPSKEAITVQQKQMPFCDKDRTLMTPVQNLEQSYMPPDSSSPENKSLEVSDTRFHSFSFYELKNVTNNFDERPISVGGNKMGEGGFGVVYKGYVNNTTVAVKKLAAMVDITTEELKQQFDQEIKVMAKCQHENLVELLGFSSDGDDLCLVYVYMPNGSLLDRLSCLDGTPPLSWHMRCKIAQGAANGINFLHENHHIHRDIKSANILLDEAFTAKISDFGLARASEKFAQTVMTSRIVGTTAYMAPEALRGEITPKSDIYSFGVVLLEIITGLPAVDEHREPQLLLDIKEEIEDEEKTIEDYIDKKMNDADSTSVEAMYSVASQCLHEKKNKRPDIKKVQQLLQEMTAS
Protocol: IRAK4 is a human purified recombinant enzyme (His-TEV-IRAK4 (1-460)).
In this assay, IRAK4 hydrolyses ATP, autophosphorylates and phosphorylates a Serine/Threonine generic peptidic substrate (STK: 61ST1BLC from CisBio International). Measurement of IRAK-4 inhibition is performed in 384-well format based on a luminescence assay (ADP-Glo™ Kinase Assay from Promega). Purified human recombinant IRAK4 (0.3 μg/ml) and serial diluted compounds in DMSO (range of concentration from 10 μM to 0.5 nM) or controls (1% DMSO) are incubated for 15 minutes at RT in assay buffer containing 50 mM Hepes pH 7.0, Fatty acid-free BSA 0.1%, Dithiothreitol (DTT) 2 mM, MgCl2 10 mM, EGTA 0.5 mM, Triton X-100 0.01%, MnCl2 5 mM. The kinase reaction is then initiated by the addition of ATP (2 μM) and the peptidic substrate STK1-biotin peptide (300 nM). After 2 hours of incubation at RT, the reaction is stopped and the unconsumed ATP depleted by the addition of ADP-Glo™ Reagent according to supplier instructions. After 40 minutes of incubation at RT, the Kinase Detection Reagent is then added to the assay plate according to supplier instructions. After 20 minutes of incubation at RT, the luminescence signal is measured with a plate-reading luminometer (PerkinElmer Envision or equivalent reader).

[1] = human purified recombinant His-TEV-IRAK1 (194-712), ATP 1 μM, read-out: IRAK1 IC50

IRAK1, sequence (P51617 194-712): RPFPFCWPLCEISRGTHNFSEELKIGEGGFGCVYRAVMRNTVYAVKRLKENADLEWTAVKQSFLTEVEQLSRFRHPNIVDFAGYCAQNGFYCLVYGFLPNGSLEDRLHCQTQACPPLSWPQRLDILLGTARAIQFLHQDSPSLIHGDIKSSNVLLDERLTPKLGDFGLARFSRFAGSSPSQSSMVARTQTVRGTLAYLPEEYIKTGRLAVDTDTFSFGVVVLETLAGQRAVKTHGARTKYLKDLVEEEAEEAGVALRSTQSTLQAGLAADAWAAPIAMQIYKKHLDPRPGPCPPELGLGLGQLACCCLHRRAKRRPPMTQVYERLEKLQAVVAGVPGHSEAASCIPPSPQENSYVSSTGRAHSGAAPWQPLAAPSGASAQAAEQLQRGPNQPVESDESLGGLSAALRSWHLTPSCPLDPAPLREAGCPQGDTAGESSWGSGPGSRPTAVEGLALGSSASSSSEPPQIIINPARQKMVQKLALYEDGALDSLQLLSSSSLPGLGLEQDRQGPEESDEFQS

Row | Compound | ring closure, yield after HPLC (the molecule shown is the open-chain precursor, multicomponent bond, 20-membered ring, Cs2CO3/KI, microwave, DMSO, 22.0 mM, 110.0 °C) [%] | IC50 (IRAK1; [1]) [nM] | IC50 (IRAK4) [nM] | ring closure, yield after HPLC (from NCCOCCn1cc(-c2cccc(C(=O)Nc3cn(C4CCOCC4)nc3C(=O)[O-])c2)cn1, amide bond, 17-membered ring, BOP/DIEA, DMF, 20.7 mM) [%] | IC50 (IRAK1) [nM]
1 | Cn1cc(NC(=O)c2cccc(-c3cnn(CCCl)c3)n2)c(C(=O)NC2CCNC[C@H]2O)n1 (stereo partly drawn) | 23.6 |  |  |  | 
2 | O=C1Nc2cn(C3CCOCC3)nc2C(=O)NCCOCCn2cc(cn2)-c2cccc1c2 [Compound 20, 15-(oxan-4-yl)-8-oxa-4,5,11,14,15,18-hexaazatetracyclo[18.3.1.1^2,^5.0^13,^1^7]pentacosa-1(23),2(25),3,13,16,20(24),21-heptaene-12,19-dione] |  | > 5000 | > 5000 | 21.8 | 
3 | O=C1Nc2cn(C3CCN(CCO)CC3)nc2C(=O)NCCCCCCn2cc(cn2)-c2cccc1n2 [Compound 22, 16-[1-(2-hydroxyethyl)piperidin-4-yl]-4,5,12,15,16,19,25-heptaazatetracyclo[19.3.1.1^2,^5.0^1^4,^1^8]hexacosa-1 (24),2(26),3,14,17,21(25),22-heptaene-13,20-dione] |  |  | < 100 |  | 100 to 1000
4 | CN(C)CCN1CCC(n2cc3c(n2)C(=O)NCCCCCCn2cc(cn2)-c2cccc(n2)C(=O)N3)CC1 [Compound 23, 6-{1-[2-(dimethylamino)ethyl]piperidin-4-yl}-4,5,12,15,16,19,25-heptaazatetracyclo[19.3.1.1^2,^5.0^1^4,^1^8]hexacosa-1(24),2(26),3,14,17,21(25),22-heptaene-13,20-dione] |  |  | < 100 |  | 100 to 1000
5 | O=C1Nc2cn(C3CCOCC3)nc2C(=O)NCCCCCCn2cc(cn2)-c2cccc1c2 [Compound 24, 16-(oxan-4-yl)-4,5,12,15,16,19-hexaazatetracyclo[19.3.1.1^2,^5.0^1^4,^1^8]hexacosa-1(24),2(26),3,14,17,21 (25),22-heptaene-13,20-dione] |  |  | < 100 |  | 100 to 1000
6 | Cn1cc2c(n1)C(=O)NCCC/C=C/Cn1cc(cn1)-c1cccc(n1)C(=O)N2 [Compound 25, (7E)-16-methyl-4,5,12,15,16,19,25-heptaazatetracyclo[19.3.1.1^2,^5.0^1^4,^1^8]hexacosa-1(24),2(26),3,7,14,17,21(25),22-octaene-13,20-dione] |  | < 100 | < 100 |  | 
7 | Cn1cc2c(n1)C(=O)NCC/C=C\CCn1cc(cn1)-c1cccc(n1)C(=O)N2 [Compound 27, (8Z)-16-methyl-4,5,12,15,16,19,25-heptaazatetracyclo[19.3.1.1^2,^5.0^1^4,^1^8]hexacosa-1(24),2(26),3,8,14,17,21(25),22-octaene-13,20-dione] |  |  | < 100 |  | 100 to 1000
8 | Cn1cc2c(n1)C(=O)NCC/C=C/CCn1cc(cn1)-c1cccc(n1)C(=O)N2 [Compound 28, (8E)-16-methyl-4,5,12,15,16,19,25-heptaazatetracyclo[19.3.1.1^2,^5.0^1^4,^1^8]hexacosa-1(24),2(26),3,8,14,17,21(25),22-octaene-13,20-dione] |  |  | < 100 |  | 100 to 1000
9 | Cn1cc2c(n1)C(=O)NC/C=C/CCCn1cc(cn1)-c1cccc(n1)C(=O)N2 [Compound 29, (9E)-16-methyl-4,5,12,15,16,19,25-heptaazatetracyclo[19.3.1.1^2,^5.0^1^4,^1^8]hexacosa-1(24),2(26),3,9,14,17,21(25),22-octaene-13,20-dione] |  |  | < 100 |  | 100 to 1000
10 | Cn1cc2c(n1)C(=O)NC/C=C\CCCn1cc(cn1)-c1cccc(n1)C(=O)N2 [Compound 30, (9Z)-16-methyl-4,5,12,15,16,19,25-heptaazatetracyclo[19.3.1.1^2,^5.0^1^4,^1^8]hexacosa-1(24),2(26),3,9,14,17,21(25),22-octaene-13,20-dione] |  |  | < 100 |  | 100 to 1000
11 | Cn1cc2c(n1)C(=O)NCC(O)C(O)CCCn1cc(cn1)-c1cccc(n1)C(=O)N2 (stereo not drawn) [Compound 31, 9,10-dihydroxy-16-methyl-4,5,12,15,16,19,25-heptaazatetracyclo[19.3.1.1^2,^5.0^1^4,^1^8]hexacosa-1(24),2(26),3,14,17,21(25),22-heptaene-13,20-dione] |  |  | < 100 |  | 100 to 1000
12 | Cn1cc2c(n1)C(=O)NCCCC(O)C(O)Cn1cc(cn1)-c1cccc(n1)C(=O)N2 (stereo not drawn) [Compound 32, 7,8-dihydroxy-16-methyl-4,5,12,15,16,19,25-heptaazatetracyclo[19.3.1.1^2,^5.0^1^4,^1^8]hexacosa-1(24),2(26),3,14,17,21(25),22-heptaene-13,20-dione] |  |  | < 100 |  | 100 to 1000
13 | Cn1cc2c(n1)C(=O)NCCC(O)C(O)CCn1cc(cn1)-c1cccc(n1)C(=O)N2 (stereo not drawn) [Compound 33, 8,9-dihydroxy-16-methyl-4,5,12,15,16,19,25-heptaazatetracyclo[19.3.1.1^2,^5.0^1^4,^1^8]hexacosa-1(24),2(26),3,14,17,21(25),22-heptaene-13,20-dione] |  |  | < 100 |  | 100 to 1000
14 | Cn1cc2c(n1)C(=O)NCCC/C=C\Cn1cc(cn1)-c1cccc(n1)C(=O)N2 [Compound 37, (7Z)-16-methyl-4,5,12,15,16,19,25-heptaazatetracyclo[19.3.1.1^2,^5.0^1^4,^1^8]hexacosa-1(24),2(26),3,7,14,17,21(25),22-octaene-13,20-dione] |  |  | < 100 |  | 100 to 1000
15 | Cn1cc2c(n1)C(=O)NCCCC#CCn1cc(cn1)-c1cccc(n1)C(=O)N2 [Compound 38, 16-methyl-4,5,12,15,16,19,25-heptaazatetracyclo[19.3.1.1^2,^5.0^1^4,^1^8]hexacosa-1(24),2(26),3,14,17,21 (25),22-heptaen-7-yne-13,20-dione] |  | < 100 | < 100 |  | 
